The test system of assay [1] is PC-3M-Luc-C6 prostate cells. Nature of the assay: In vitro PC-3M-Luc-C6 prostate cell proliferation assay in lipid reduced medium. The settings on record: 96 h, read-out: pIC50 PC-3M-Luc-C6 prostate cell (converted). Type of assay: cell-based. The procedure: PC-3M-Luc-C6 prostate cells were obtained from Xenogen Corporation. Cells were maintained in MEM supplemented with 10% Fetal Calf Serum (FCS, Hyclone), 2 mM glutamine, 1 mM sodium pyruvate, 1% BME vitamins (available from for example, Sigma Aldrich), 0.1 mM non Essential Amino Acid and 50 μg/ml Gentamicin. The cells were passaged twice a week.
The next day 10 μl test compound/DMSO diluted in medium was added (3E-5M, 1E-5M, 3E-6M, 1E-6M, 3E-7M, 1E-7M, 3E-8M, 1E-8M final concentration). Compounds were tested in duplicate. After 96 h incubation at 37° C., 5% CO2 25 μl ATP-glow mix was added. The plate was incubated for 30 min at 37° C. and luminescence was measured with the Envision.
Analysis: Determination of pIC50 Values
pIC50 values were calculated as follows.
where mLC and mHC are the means of the low control wells and high control wells on the plate, after manual exclusion of outliers. The relation between the % Controlmin values and concentration was fitted to a 4-parameter logistic curve using a non-linear least squares regression method to determine the pIC50 value. Outlying data points were excluded manually to get a correct fit. The pIC50 corresponds to −log 10(IC50), if the IC50 is expressed in molar units (http://www.ncbi.nlm.nih.gov/books/NBK91994). The IC50 parameter was always determined by non-linear regression, but one or more of the other parameters may have been held fixed on a relevant input value, such as 0 for the bottom values.

Assay [2] deals with Fatty Acid Synthase Keto-reductase Domain (FASN KR) (Homo sapiens, UniProt P49327). As to the kind of experiment: Fatty Acid Synthase keto-reductase domain (FASN KR) inhibition, NADPH oxidation at 340 nm.
Experimental: After 20 minutes incubation at room temperature the plate was measured again (T2).
The decrease in absorbance was calculated as (Absorbance before incubation T1)−(Absorbance following incubation T2).
A plot of Controlmin versus test compound concentration was fitted to a 4-parameter logistic curve using a non-linear least squares regression method.
Assay [3] concerns A2780 ovarian cells. As to the kind of experiment: A2780 ovarian cell proliferation assay in lipid reduced medium, without palmitate (MTT). The assay is classed as cell-based. The settings on record: Homo sapiens, A2780, 96 h; read-out: pIC50 A2780 Ovarian Cell, Without Palmitate (converted).
Assay [4] has as its target T1, hFASN enzyme (full length) (Homo sapiens, UniProt P49327).
T1 construct: 10 μL hFASN enzyme (full length, 300 ng, purified in house); made in house
As to the kind of experiment: Fatty Acid Synthase (FASN) inhibition scintillation proximity assay. The assay is classed as biochemical. The note with it: for inhibition at 10 µM: read-out: Human FASN % inhibition @ 10 μM, 10 μM test compound; for IC50: read-out: Human FASN pIC50 (converted). In a few lines:
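Purified full-length hFASN (300 ng) converts ^3H-acetyl-CoA plus malonyl-CoA to ^3H-palmitate in 100 mM KH2PO4 pH 7.5, 1 mM DTT; compounds tested at 0.01–30 μM. Product captured on streptavidin imaging beads and read by LEADseeker at 610 nm after ≥24 h; 4-parameter logistic fit versus controls.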
(In general: SPA uses beads or plates that emit light when radiolabelled molecules are held near them.)

For assay [5], the system named is A2780 ovarian cells. As to the kind of experiment: A2780 ovarian cell proliferation assay in lipid reduced medium, with palmitate (MTT). The note with it: Homo sapiens, A2780, 96 h; read-out: pIC50 A2780 Ovarian Cell, With Palmitate (converted). The assay is classed as cell-based. The gist of the method:
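Seeded cells were switched next day to lipid-reduced serum, exposed to compound and 25 μM palmitate complexed with fatty-acid-free BSA, and incubated 96 h. Proliferation was then determined by MTT absorbance at 544 nm, with a best-fit curve of signal against concentration.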

The record followed here is patent US10077261B2, “Imidazolin-5-one derivative useful as FASN inhibitors for the treatment of cancer” (Janssen Pharmaceutica NV, priority 2012, dated 2018).

SMILES strings stand for the structures.

What is called inhibition is the drop in the measured response relative to a control, in per cent.

T1 sequence (P49327 whole entry): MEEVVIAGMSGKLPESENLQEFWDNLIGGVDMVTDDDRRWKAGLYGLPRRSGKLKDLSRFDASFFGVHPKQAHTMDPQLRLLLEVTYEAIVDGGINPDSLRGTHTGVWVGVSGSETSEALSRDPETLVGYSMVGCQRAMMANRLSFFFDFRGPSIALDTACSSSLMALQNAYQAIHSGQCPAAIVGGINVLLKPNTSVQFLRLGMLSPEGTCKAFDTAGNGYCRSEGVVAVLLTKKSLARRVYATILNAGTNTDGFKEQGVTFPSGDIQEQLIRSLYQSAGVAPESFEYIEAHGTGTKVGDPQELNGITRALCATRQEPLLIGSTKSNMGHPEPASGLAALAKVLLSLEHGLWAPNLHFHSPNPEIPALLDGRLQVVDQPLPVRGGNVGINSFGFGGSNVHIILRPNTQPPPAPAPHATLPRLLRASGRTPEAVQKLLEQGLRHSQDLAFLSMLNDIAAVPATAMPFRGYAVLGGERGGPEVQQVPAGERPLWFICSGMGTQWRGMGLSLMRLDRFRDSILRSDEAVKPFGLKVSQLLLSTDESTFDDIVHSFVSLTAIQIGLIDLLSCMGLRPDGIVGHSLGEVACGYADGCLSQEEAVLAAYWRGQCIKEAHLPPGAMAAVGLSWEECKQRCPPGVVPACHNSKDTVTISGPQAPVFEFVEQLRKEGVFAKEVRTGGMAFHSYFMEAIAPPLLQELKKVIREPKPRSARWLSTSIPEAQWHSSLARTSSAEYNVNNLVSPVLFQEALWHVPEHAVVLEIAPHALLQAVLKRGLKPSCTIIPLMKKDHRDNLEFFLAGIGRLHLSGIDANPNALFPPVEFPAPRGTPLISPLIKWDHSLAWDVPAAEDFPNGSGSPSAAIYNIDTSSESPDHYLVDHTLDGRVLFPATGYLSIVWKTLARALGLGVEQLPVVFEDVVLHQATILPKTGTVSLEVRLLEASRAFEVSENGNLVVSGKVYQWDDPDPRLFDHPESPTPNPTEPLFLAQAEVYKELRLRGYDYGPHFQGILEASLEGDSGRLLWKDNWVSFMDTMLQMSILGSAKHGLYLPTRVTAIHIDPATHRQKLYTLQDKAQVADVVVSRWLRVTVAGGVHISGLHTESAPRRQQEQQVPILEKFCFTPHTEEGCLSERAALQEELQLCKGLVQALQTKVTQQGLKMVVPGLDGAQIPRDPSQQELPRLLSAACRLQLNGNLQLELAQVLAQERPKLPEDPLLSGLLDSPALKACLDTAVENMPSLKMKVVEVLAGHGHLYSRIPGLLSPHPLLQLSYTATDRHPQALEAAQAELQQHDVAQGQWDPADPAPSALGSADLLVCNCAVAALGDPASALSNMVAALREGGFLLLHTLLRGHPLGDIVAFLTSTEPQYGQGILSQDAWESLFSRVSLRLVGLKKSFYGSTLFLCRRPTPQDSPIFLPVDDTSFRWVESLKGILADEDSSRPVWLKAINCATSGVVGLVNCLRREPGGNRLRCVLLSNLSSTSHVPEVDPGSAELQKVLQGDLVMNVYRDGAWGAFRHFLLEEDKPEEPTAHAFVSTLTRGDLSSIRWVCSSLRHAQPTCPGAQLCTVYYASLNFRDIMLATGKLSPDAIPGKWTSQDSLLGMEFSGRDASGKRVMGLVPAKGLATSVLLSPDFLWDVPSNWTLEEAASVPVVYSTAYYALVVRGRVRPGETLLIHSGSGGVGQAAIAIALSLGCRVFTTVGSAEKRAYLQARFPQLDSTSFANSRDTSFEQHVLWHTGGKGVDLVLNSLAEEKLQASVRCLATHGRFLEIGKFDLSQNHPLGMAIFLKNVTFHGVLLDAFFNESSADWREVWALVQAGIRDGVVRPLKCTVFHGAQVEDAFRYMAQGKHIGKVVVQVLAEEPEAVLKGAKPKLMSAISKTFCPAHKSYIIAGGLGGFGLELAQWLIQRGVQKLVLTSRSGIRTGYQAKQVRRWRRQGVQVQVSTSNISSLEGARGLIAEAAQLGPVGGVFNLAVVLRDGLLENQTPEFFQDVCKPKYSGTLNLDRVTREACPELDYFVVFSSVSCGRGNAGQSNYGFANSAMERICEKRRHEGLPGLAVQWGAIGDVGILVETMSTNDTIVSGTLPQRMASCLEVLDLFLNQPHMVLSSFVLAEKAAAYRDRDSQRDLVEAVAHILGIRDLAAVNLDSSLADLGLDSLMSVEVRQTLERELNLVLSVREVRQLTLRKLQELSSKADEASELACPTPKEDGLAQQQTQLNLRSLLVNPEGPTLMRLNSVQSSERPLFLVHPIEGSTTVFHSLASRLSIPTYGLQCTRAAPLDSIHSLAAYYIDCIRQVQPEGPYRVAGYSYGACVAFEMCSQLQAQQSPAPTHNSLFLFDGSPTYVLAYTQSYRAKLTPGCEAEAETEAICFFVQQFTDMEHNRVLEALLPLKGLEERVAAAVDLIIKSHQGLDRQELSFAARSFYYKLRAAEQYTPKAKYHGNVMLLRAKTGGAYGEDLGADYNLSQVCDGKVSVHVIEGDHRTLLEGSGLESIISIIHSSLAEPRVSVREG
Chain of Fatty Acid Synthase Keto-reductase Domain (FASN KR) (P49327 whole entry, the tested form may be a part): as the sequence (P49327 whole entry) above

Regarding `O=C(C1CC1)N1CC[C@@H](CN2C(=O)C3(CCCC3)N=C2c2ccc(-c3ccc4occc4c3)cc2)C1` [compound 2, 2-[4-(1-Benzofuran-5-yl)phenyl]-3-{[(3R)-1-(cyclopropylcarbonyl)pyrrolidin-3-yl]methyl-}3-diazaspiro[4.4]non-1-en-4-one], the IC50 in assay [1] was ~0.661 µM; in assay [2], 0.0891 µM; in the assay with A2780 ovarian cells [3], 0.977 µM; in assay [4] it was 0.0457 µM; in the assay on A2780 ovarian cells [5] it was > 10 µM. For the same molecule, in assay [4], the inhibition at 10 µM amounted to 109%.
For `Cc1cc2cc(-c3ccc(C4=NC5(CC5)C(=O)N4CC4CN(C(=O)C5CC5)C4)c(C)c3)ccc2[nH]1` [compound 263, 6-((1-(cyclopropanecarbonyl)azetidin-3-yl)methyl)-5-(2-methyl-4-(2-methyl-1H-indol-5-yl)phenyl)-4,6-diazaspiro[2.4]hept-4-en-7-one], the IC50 in assay [1] is 0.112 µM; in assay [2], 0.251 µM; in the assay with A2780 ovarian cells [3], 0.12 µM; in assay [4] it was 0.0513 µM; in the assay with A2780 ovarian cells [5], > 10 µM. Also, in assay [4], the inhibition at 10 µM was 105%.
`O=C(C1CC1)N1CC[C@@H](CN2C(=O)C3(CC3)N=C2c2ccc(-c3cccc(NS(=O)(=O)C4CC4)c3)cc2F)C1` [compound 318]: the IC50 in assay [1] was 0.0525 µM; in assay [2] it was 0.123 µM; in the assay on A2780 ovarian cells [3], ~0.0708 µM; in assay [4], 0.0661 µM; in the assay with A2780 ovarian cells [5], > 10 µM. The inhibition at 10 µM in assay [4] amounted to 100%.
As to `Cn1ncc2cc(-c3ccc(C4=NC5(CC5)C(=O)N4C[C@@H]4CCN(C(=O)C5CC5)C4)cc3F)ccc21` [compound 405, 6-{[(3R)-1-(Cyclopropylcarbonyl)pyrrolidin-3-yl]methyl}-5-[3-fluoro-4-(1-methyl-1H-indazol-5-yl)phenyl]-4,6-diazaspiro[2.4]hept-4-en-7-one], the IC50 in assay [1] was 0.457 µM; in the assay on A2780 ovarian cells [3] it was 0.479 µM; in the assay on A2780 ovarian cells [5] it was > 10 µM.
In the case of `O=C(C1CC1)N1CC(CN2C(=O)C3(CC3)N=C2c2ccc(-c3ccc4cc[nH]c4c3)c(F)c2)C1` [compound 442, 6-{[1-(Cyclopropylcarbonyl)azetidin-3-yl]methyl}-5-[3-fluoro-4-(1H-indol-6-yl)phenyl]-4,6-diazaspiro[2.4]hept-4-en-7-one], the IC50 in assay [1] is 0.513 µM; in assay [2] it was 0.339 µM; in the assay with A2780 ovarian cells [3], 0.257 µM; in assay [4], 0.2 µM; with A2780 ovarian cells [5], > 10 µM. Moreover, the inhibition at 10 µM in assay [4] was 94%.
`O=C(C1CC1)N1CC(CN2C(=O)C3(CC3)N=C2c2ccc(-c3cccc4[nH]ncc34)c(F)c2)C1` [compound 443, 6-{[1-(Cyclopropylcarbonyl)azetidin-3-yl]methyl}-5-[3-fluoro-4-(1H-indazol-4-yl)phenyl]-4,6-diazaspiro[2.4]hept-4-en-7-one]: the IC50 in assay [1] is 0.851 µM; in assay [2] it was 1.05 µM; in the assay on A2780 ovarian cells [3], 0.794 µM; in assay [4] it was 0.912 µM; with A2780 ovarian cells [5], > 10 µM. For the same molecule, the inhibition at 10 µM in assay [4] came to 88%.
For the molecule `Cc1cc(-c2ccc3c(cnn3C)c2)ccc1C1=NC2(CC2)C(=O)N1CC1CN(C(=O)C2(O)CC2)C1` [compound 498, 6-({1-[(1-Hydroxycyclopropyl)carbonyl]-azetidin-3-yl}methyl)-5-[2-methyl-4-(1-methyl-1H-indazol-5-yl)phenyl]-4,6-diazaspiro[2.4]hept-4-en-7-one], in assay [1], the IC50 was 0.234 µM. For the same molecule, the inhibition at 10 µM in assay [4] was found to be 99%.
As to `Cc1cc(-c2ccc3c(cnn3C)c2)ccc1C1=NC2(CC2)C(=O)N1CC1CN(C(=O)C(C)(C)CO)C1` [compound 546, 6-{[1-(3-Hydroxy-2,2-dimethylpropanoyl)azetidin-3-yl]methyl}-5-[2-methyl-4-(1-methyl-1H-indazol-5-yl)phenyl]-4,6-diazaspiro[2.4]hept-4-en-7-one], the IC50 in assay [1] was ~0.309 µM; in assay [2], 0.603 µM; in the assay with A2780 ovarian cells [3], ~0.195 µM; in assay [4], 0.204 µM; in the assay with A2780 ovarian cells [5], > 10 µM. In addition, the inhibition at 10 µM in assay [4] amounted to 100%.
Consider `Cc1cc(-c2ccc3cc(OC(C)C)ccc3c2)ccc1C1=NC2(CC2)C(=O)N1CC1CN(C(=O)C2(C)CC2)C1` [compound 581, 6-({1-[(1-Methylcyclopropyl)carbonyl]azetidin-3-yl}methyl)-5-{2-methyl-4-[6-(1-methylethoxy)naphthalen-2-yl]phenyl}-4,6-diazaspiro[2.4]hept-4-en-7-one], for which the IC50 in assay [1] was ~0.295 µM; in assay [2], 0.631 µM; in the assay with A2780 ovarian cells [3], ~0.2 µM; in assay [4] it was 0.316 µM; with A2780 ovarian cells [5] it was 4.27 µM. Also, in assay [4], the inhibition at 10 µM came to 93%.
`O=C(Nc1cccc(-c2ccc(C3=NC4(CC4)C(=O)N3C[C@@H]3CCN(C(=O)C4CC4)C3)c(F)c2)c1)C1CC1` [compound 585, N-[4′-(6-{[(3R)-1-(Cyclopropylcarbonyl)pyrrolidin-3-yl]methyl}-7-oxo-4,6-diazaspiro[2.4]hept-4-en-5-yl)-3′-fluorobiphenyl-3-yl]cyclopropanecarboxamide]: the IC50 was 0.1 µM in assay [1]; 0.162 µM in assay [2]; 0.0832 µM in the assay with A2780 ovarian cells [3]; 0.112 µM in assay [4]; > 10 µM with A2780 ovarian cells [5]. Also, in assay [4], the inhibition at 10 µM was 99%.
As for `Cc1cc(-c2ccc3c(c2)c(CO)nn3C)ccc1C1=NC2(CC2)C(=O)N1CC1CN(C(=O)C2CC2)C1` [compound 586, 6-{[1-(Cyclopropylcarbonyl)azetidin-3-yl]methyl}-5-{4-[3-(hydroxymethyl)-1-methyl-1H-indazol-5-yl]-2-methylphenyl}-4,6-diazaspiro[2.4]hept-4-en-7-one], the IC50 in assay [1] was 1.02 µM; in assay [2], 1.66 µM; with A2780 ovarian cells [3], ~0.851 µM; in assay [4] it was 0.525 µM; in the assay on A2780 ovarian cells [5] it was > 10 µM. Further, the inhibition at 10 µM in assay [4] stood at 93%.
`Cc1cc(-c2ccc3c(c2)c(Cl)nn3C)ccc1C1=NC2(CC2)C(=O)N1CC1CN(C(=O)C2CC2)C1` [compound 591, 5-[4-(3-Chloro-1-methyl-1H-indazol-5-yl)-2-methylphenyl]-6-{[1-(cyclopropylcarbonyl)azetidin-3-yl]methyl}-4,6-diazaspiro[2.4]hept-4-en-7-one]: the IC50 is 0.372 µM in assay [1]; 1.05 µM in assay [2]; ~0.347 µM in the assay with A2780 ovarian cells [3]; 0.195 µM in assay [4]; > 10 µM with A2780 ovarian cells [5]. Further, the inhibition at 10 µM in assay [4] came out at 93%.
For `Cc1cc(-c2ccc3cc(C)c(Cl)nc3c2)ccc1C1=NC2(CC2)C(=O)N1CC1CN(C(=O)C2(C)CC2)C1` [compound 596], the IC50 is ~0.759 µM in assay [1]; 0.589 µM in assay [2]; 0.457 µM with A2780 ovarian cells [3]; 0.186 µM in assay [4]; 6.31 µM in the assay with A2780 ovarian cells [5]. Also, the inhibition at 10 µM in assay [4] came to 102%.
In the case of `COCCN1CCC2(CC1)N=C(c1ccc(-c3ccc4occc4c3)cc1)N(C[C@@H]1CCN(C(=O)C3CC3)C1)C2=O` [compound 749, 2-[4-(1-Benzofurann-5-yl)phenyl]-3-{[(3R)-1-(cyclopropylcarbonyl)pyrrolidin-3-yl]methyl}-8-(2-methoxyethyl)-1,3,8-triazaspiro[4.5]dec-1-en-4-one], the IC50 in assay [1] was 0.759 µM; in assay [2], 0.603 µM; with A2780 ovarian cells [3], 1.55 µM; in assay [4], 0.138 µM; in the assay on A2780 ovarian cells [5], > 10 µM. Further, the inhibition at 10 µM in assay [4] amounted to 97%.
